From ChEMBL document CHEMBL3885881, “DrugMatrix”

Species: Rattus norvegicus
Test: DrugMatrix - Regimen: Daily Repeat
Assay type: toxicity, organism-based, Sprague-Dawley
Set-up: regimen Daily Repeat, gender Male, age 6-8 weeks
Conditions: in vivo, po, route oral GAVAGE, vehicle .5 % CMC; for BASOPHIL / EOSINOPHIL / ERYTHROCYTE COUNT / HEMATOCRIT / HEMOGLOBIN / LYMPHOCYTE / MEAN CORPUSCULAR HEMOGLOBIN / MEAN CORPUSCULAR HEMOGLOBIN CONCENTRATION / MEAN CORPUSCULAR VOLUME / MONOCYTE / NEUTROPHIL / PLATELET COUNT: tissue Blood; for ALANINE AMINOTRANSFERASE / ALBUMIN / ALKALINE PHOSPHATASE / ASPARTATE AMINOTRANSFERASE / BLOOD UREA NITROGEN / CHOLESTEROL / CREATINE PHOSPHOKINASE / CREATININE / GLUCOSE / PHOSPHORUS / POTASSIUM / SODIUM / TOTAL BILIRUBIN / TOTAL PROTEIN: tissue Plasma
[1] = 0 mg/kg, 72 h, dose level Control, time 3 day
[2] = 0 mg/kg, 120 h, dose level Control, time 5 day
[3] = 20 mg/kg, 72 h, dose level Low, time 3 day
[4] = 20 mg/kg, 120 h, dose level Low, time 5 day

`CN(C)CCC=C1c2ccccc2COc2ccccc21` [DOXEPIN] was tested, and the BASOPHIL [1] was 0%, the EOSINOPHIL [1] was 0.33% and the “ERYTHROCYTE COUNT” value [1] was 6.2 x10E6/uL. It also gave an HEMATOCRIT [1] of 38.08%, an HEMOGLOBIN [1] of 14.92 G/DL and an LYMPHOCYTE [1] of 76%. The “MEAN CORPUSCULAR HEMOGLOBIN” value [1] was 24.1 pg, the “MEAN CORPUSCULAR HEMOGLOBIN CONCENTRATION” value [1] was 39.17 G/DL and the “MEAN CORPUSCULAR VOLUME” value [1] was 61.48 fL. For the same compound, the MONOCYTE [1] was 3.83%, the NEUTROPHIL [1] was 19.83% and the “PLATELET COUNT” value [1] was 1327.5 x10E3/uL. For the same compound, the “ALANINE AMINOTRANSFERASE” value [1] was 40.17 u/L, the ALBUMIN [1] was 4.07 G/DL and the “ALKALINE PHOSPHATASE” value [1] was 372 u/L. For the same compound, the “ASPARTATE AMINOTRANSFERASE” value [1] was 67.17 u/L, the “BLOOD UREA NITROGEN” value [1] was 18.83 mg/dL and the CHOLESTEROL [1] was 78.17 mg/dL. The “CREATINE PHOSPHOKINASE” value [1] was 149.17 u/L, the CREATININE [1] was 0.57 mg/dL and the GLUCOSE [1] was 185.17 mg/dL. It also gave a PHOSPHORUS [1] of 11.43 mg/dL, a POTASSIUM [1] of 6.78 MEQ/L and an SODIUM [1] of 152.83 MEQ/L. The “TOTAL BILIRUBIN” value [1] was 0.4 mg/dL, the “TOTAL PROTEIN” value [1] was 6.87 G/DL and the BASOPHIL [2] was 0%. For the same compound, the EOSINOPHIL [2] was 0%, the “ERYTHROCYTE COUNT” value [2] was 6.05 x10E6/uL and the HEMATOCRIT [2] was 36.55%. The HEMOGLOBIN [2] was 14.7 G/DL, the LYMPHOCYTE [2] was 86.83% and the “MEAN CORPUSCULAR HEMOGLOBIN” value [2] was 24.37 pg. The “MEAN CORPUSCULAR HEMOGLOBIN CONCENTRATION” value [2] was 40.32 G/DL, the “MEAN CORPUSCULAR VOLUME” value [2] was 60.47 fL and the MONOCYTE [2] was 0.83%. The NEUTROPHIL [2] was 12.33%, the “PLATELET COUNT” value [2] was 1177 x10E3/uL and the “ALANINE AMINOTRANSFERASE” value [2] was 41.83 u/L. The ALBUMIN [2] was 3.75 G/DL, the “ALKALINE PHOSPHATASE” value [2] was 377.5 u/L and the “ASPARTATE AMINOTRANSFERASE” value [2] was 60.83 u/L. For the same compound, the “BLOOD UREA NITROGEN” value [2] was 16 mg/dL, the CHOLESTEROL [2] was 67.83 mg/dL and the “CREATINE PHOSPHOKINASE” value [2] was 120.33 u/L. It also gave a CREATININE [2] of 0.6 mg/dL, a GLUCOSE [2] of 167.67 mg/dL and a PHOSPHORUS [2] of 10.03 mg/dL. For the same compound, the POTASSIUM [2] was 6.68 MEQ/L, the SODIUM [2] was 150.5 MEQ/L and the “TOTAL BILIRUBIN” value [2] was 0.57 mg/dL. The “TOTAL PROTEIN” value [2] was 6.25 G/DL, the BASOPHIL [3] was 0% and the EOSINOPHIL [3] was 0%. For the same compound, the “ERYTHROCYTE COUNT” value [3] was 5.9 x10E6/uL, the HEMATOCRIT [3] was 36.4% and the HEMOGLOBIN [3] was 14.15 G/DL. For the same compound, the LYMPHOCYTE [3] was 83%, the “MEAN CORPUSCULAR HEMOGLOBIN” value [3] was 24 pg and the “MEAN CORPUSCULAR HEMOGLOBIN CONCENTRATION” value [3] was 38.9 G/DL. For the same compound, the “MEAN CORPUSCULAR VOLUME” value [3] was 61.75 fL, the MONOCYTE [3] was 0% and the NEUTROPHIL [3] was 17%. For the same compound, the “PLATELET COUNT” value [3] was 1287.5 x10E3/uL, the “ALANINE AMINOTRANSFERASE” value [3] was 38.33 u/L and the ALBUMIN [3] was 3.6 G/DL. For the same compound, the “ALKALINE PHOSPHATASE” value [3] was 352.33 u/L, the “ASPARTATE AMINOTRANSFERASE” value [3] was 56.67 u/L and the “BLOOD UREA NITROGEN” value [3] was 11.67 mg/dL. The CHOLESTEROL [3] was 72.67 mg/dL, the “CREATINE PHOSPHOKINASE” value [3] was 139.33 u/L and the CREATININE [3] was 0.53 mg/dL. For the same compound, the GLUCOSE [3] was 179.67 mg/dL, the PHOSPHORUS [3] was 11.8 mg/dL and the POTASSIUM [3] was 6.33 MEQ/L. For the same compound, the SODIUM [3] was 150 MEQ/L, the “TOTAL BILIRUBIN” value [3] was 0.2 mg/dL and the “TOTAL PROTEIN” value [3] was 5.83 G/DL. For the same compound, the BASOPHIL [4] was 0%, the EOSINOPHIL [4] was 0% and the “ERYTHROCYTE COUNT” value [4] was 6.16 x10E6/uL. The HEMATOCRIT [4] was 37.07%, the HEMOGLOBIN [4] was 14.67 G/DL and the LYMPHOCYTE [4] was 91.67%. For the same compound, the “MEAN CORPUSCULAR HEMOGLOBIN” value [4] was 23.87 pg, the “MEAN CORPUSCULAR HEMOGLOBIN CONCENTRATION” value [4] was 39.57 G/DL and the “MEAN CORPUSCULAR VOLUME” value [4] was 60.23 fL. The MONOCYTE [4] was 0.33%, the NEUTROPHIL [4] was 8% and the “PLATELET COUNT” value [4] was 1231.33 x10E3/uL. For the same compound, the “ALANINE AMINOTRANSFERASE” value [4] was 36 u/L, the ALBUMIN [4] was 3.67 G/DL and the “ALKALINE PHOSPHATASE” value [4] was 311.33 u/L. For the same compound, the “ASPARTATE AMINOTRANSFERASE” value [4] was 55.67 u/L, the “BLOOD UREA NITROGEN” value [4] was 12.67 mg/dL and the CHOLESTEROL [4] was 71.33 mg/dL. The “CREATINE PHOSPHOKINASE” value [4] was 153 u/L, the CREATININE [4] was 0.6 mg/dL and the GLUCOSE [4] was 161.33 mg/dL. It also gave a PHOSPHORUS [4] of 12.47 mg/dL, a POTASSIUM [4] of 6.8 MEQ/L and an SODIUM [4] of 151.67 MEQ/L. For the same compound, the “TOTAL BILIRUBIN” value [4] was 0.43 mg/dL and the “TOTAL PROTEIN” value [4] was 6.17 G/DL.
